# Measurements: US20250376461A1, “INDAZOLE DERIVATIVES FOR TREATING TRPM3-MEDIATED DISORDERS” (Katholieke Universiteit Leuven, priority 2022, published 2025)
# Target: T1, mouse TRPM3α2 (mTRPM3) ion channel (Mus musculus, UniProt J9SQF3)
# T1 construct: expressed in transfected cells; host or cells: flip-in HEK293
# Experiment: TRPM3 ion channel driven Ca2+ uptake, Fluo-4 AM assay, mTRPM3alpha2 overexpressing flip-in HEK293 cells stimulated with pregnenolone sulfate (50 μM)
# Assay type: cell-based
# Conditions: mTRPM3 overexpressing HEK293 cells stimulated with pregnenolone sulfate (50 μM), activity ranges A, B, C
# Outline: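 Ca2+ influx via mouse TRPM3α2 was opened with pregnenolone sulfate (50 μM) and tracked by Fluo-4 AM fluorescence at 485/535 nm, read directly after adding about 2000 stably transfected HEK293 cells per well to compound. IC50 values come from percent inhibition scaled to vehicle and positive-control inhibitor signals.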
# T1 sequence (J9SQF3 1-1709 isoform J9SQF3-12): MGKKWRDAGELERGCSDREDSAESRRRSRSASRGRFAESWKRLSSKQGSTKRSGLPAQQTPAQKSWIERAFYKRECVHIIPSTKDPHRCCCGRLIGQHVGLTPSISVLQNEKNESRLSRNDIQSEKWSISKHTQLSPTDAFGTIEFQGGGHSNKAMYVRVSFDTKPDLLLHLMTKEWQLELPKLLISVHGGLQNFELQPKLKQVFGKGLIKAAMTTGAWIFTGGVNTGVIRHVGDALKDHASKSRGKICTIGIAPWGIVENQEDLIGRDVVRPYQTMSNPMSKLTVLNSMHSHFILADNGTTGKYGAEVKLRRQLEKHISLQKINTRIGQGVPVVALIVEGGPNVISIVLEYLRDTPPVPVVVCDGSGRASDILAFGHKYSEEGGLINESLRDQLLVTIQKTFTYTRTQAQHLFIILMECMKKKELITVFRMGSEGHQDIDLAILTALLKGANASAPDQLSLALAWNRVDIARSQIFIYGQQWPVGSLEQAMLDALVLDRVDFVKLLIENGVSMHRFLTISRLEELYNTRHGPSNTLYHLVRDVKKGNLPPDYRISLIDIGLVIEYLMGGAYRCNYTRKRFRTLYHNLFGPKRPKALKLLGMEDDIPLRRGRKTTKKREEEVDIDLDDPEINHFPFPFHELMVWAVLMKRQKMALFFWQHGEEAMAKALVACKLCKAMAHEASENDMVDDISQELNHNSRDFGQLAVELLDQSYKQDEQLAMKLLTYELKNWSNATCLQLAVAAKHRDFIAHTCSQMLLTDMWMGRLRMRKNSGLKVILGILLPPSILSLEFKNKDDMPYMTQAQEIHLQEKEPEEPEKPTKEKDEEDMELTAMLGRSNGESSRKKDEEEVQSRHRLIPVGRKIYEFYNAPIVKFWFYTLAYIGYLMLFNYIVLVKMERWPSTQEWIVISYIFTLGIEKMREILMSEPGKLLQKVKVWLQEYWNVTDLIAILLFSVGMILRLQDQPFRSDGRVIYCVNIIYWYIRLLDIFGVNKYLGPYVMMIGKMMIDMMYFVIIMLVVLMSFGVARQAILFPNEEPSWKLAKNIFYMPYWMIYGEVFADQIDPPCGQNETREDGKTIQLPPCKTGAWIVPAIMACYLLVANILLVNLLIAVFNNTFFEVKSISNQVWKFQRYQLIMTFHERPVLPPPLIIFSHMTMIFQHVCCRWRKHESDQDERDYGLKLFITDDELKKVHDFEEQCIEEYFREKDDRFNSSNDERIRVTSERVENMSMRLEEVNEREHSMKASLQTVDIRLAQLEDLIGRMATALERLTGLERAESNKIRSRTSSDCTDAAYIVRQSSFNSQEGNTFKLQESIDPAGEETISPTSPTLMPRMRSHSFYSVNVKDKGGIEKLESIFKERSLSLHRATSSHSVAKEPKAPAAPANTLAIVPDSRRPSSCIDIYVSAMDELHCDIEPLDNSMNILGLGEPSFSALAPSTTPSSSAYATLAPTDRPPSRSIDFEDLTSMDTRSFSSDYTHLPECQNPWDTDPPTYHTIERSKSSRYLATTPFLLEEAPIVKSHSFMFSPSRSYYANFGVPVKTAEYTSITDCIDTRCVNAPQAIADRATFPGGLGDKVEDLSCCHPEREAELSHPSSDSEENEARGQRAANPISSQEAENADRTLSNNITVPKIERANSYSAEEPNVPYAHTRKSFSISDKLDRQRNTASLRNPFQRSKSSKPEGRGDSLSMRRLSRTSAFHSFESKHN
row,IC50 [µM],Compound
1,1 to 20,"Cn1nc2ccc(OCc3ccccn3)cc2c1C(=O)NC1(CO)CC1C(F)F (single isomer, unassigned) [Cpd 237 - En1]"
2,> 20,"Cn1nc2ccc(OCc3ccccn3)cc2c1C(=O)NC1(CO)CC1C(F)F (single isomer, unassigned) [Cpd 237 - En2]"
3,1 to 20,"Cn1nc2ccc(OCc3ccccn3)cc2c1C(=O)NC(CO)c1nccn1C1CC1 (single isomer, unassigned) [Cpd 238 - En1]"
4,1 to 20,"Cn1nc2ccc(OCc3ccccn3)cc2c1C(=O)NC(CO)c1nccn1C1CC1 (single isomer, unassigned) [Cpd 238 - En2]"
5,> 20,"Cn1ccc(C(C)(CO)NC(=O)c2c3cc(OCc4ccccn4)ccc3nn2C)n1 (single isomer, unassigned) [Cpd 239 - En1]"
6,> 20,"Cn1ccc(C(C)(CO)NC(=O)c2c3cc(OCc4ccccn4)ccc3nn2C)n1 (single isomer, unassigned) [Cpd 239 - En2]"
7,> 20,"Cn1nc2ccc(OCc3ccccn3)cc2c1C(=O)NC(CO)CC(N)=O (single isomer, unassigned) [Cpd 240 - En1, 4-hydroxy-3-({2-methyl-5-[(pyridin-2-yl)methoxy]-2H-indazol-3-yl}formamido)butanamide]"
8,> 20,"Cn1nc2ccc(OCc3ccccn3)cc2c1C(=O)NC(CO)CC(N)=O (single isomer, unassigned) [Cpd 240 - En2, 4-hydroxy-3-({2-methyl-5-[(pyridin-2-yl)methoxy]-2H-indazol-3-yl}formamido)butanamide]"
9,1 to 20,"Cn1nc2ccc(OCc3ccccn3)cc2c1C(=O)NC(CO)C1CCOCC1 (single isomer, unassigned) [Cpd 241 - En1]"
10,> 20,"Cn1nc2ccc(OCc3ccccn3)cc2c1C(=O)NC(CO)C1CCOCC1 (single isomer, unassigned) [Cpd 241 - En2]"
11,> 20,"Cn1nc2ccc(OCc3ccccn3)cc2c1C(=O)NC(CO)Cc1ncccn1 (single isomer, unassigned) [Cpd 243 - En1]"
12,> 20,"Cn1nc2ccc(OCc3ccccn3)cc2c1C(=O)NC(CO)Cc1ncccn1 (single isomer, unassigned) [Cpd 243 - En2]"
13,> 20,"Cn1nc2ccc(OCc3ccccn3)cc2c1C(=O)NCC(O)CC(F)(F)F (single isomer, unassigned) [Cpd 245 - En1]"
14,> 20,"Cn1nc2ccc(OCc3ccccn3)cc2c1C(=O)NCC(O)CC(F)(F)F (single isomer, unassigned) [Cpd 245 - En2]"
15,> 20,"Cn1nc2ccc(OCc3ccccn3)cc2c1C(=O)NC1CNCC1C(F)(F)F (single isomer, unassigned) [Cpd 246 - En1]"
16,< 1,"Cn1nc2ccc(OCc3ccccn3)cc2c1C(=O)NC1CNCC1C(F)(F)F (single isomer, unassigned) [Cpd 246 - En2]"
17,> 20,"Cn1nc2ccc(OCc3ccccn3)cc2c1C(=O)NC1(CC(F)F)CCCNC1 (single isomer, unassigned) [Cpd 248 - En1]"
18,1 to 20,"Cn1nc2ccc(OCc3ccccn3)cc2c1C(=O)NC1(CC(F)F)CCCNC1 (single isomer, unassigned) [Cpd 248 - En2]"
19,> 20,"Cn1ccc(C(CO)NC(=O)c2c3cc(OCc4ccccn4)ccc3nn2C)n1 (single isomer, unassigned) [Cpd 251 - En1]"
20,> 20,"Cn1ccc(C(CO)NC(=O)c2c3cc(OCc4ccccn4)ccc3nn2C)n1 (single isomer, unassigned) [Cpd 251 - En2]"
21,> 20,"Cn1nc2ccc(OCc3ccccn3)cc2c1C(=O)NC(CO)Cc1ccccn1 (single isomer, unassigned) [Cpd 252 - En1]"
22,> 20,"Cn1nc2ccc(OCc3ccccn3)cc2c1C(=O)NC(CO)Cc1ccccn1 (single isomer, unassigned) [Cpd 252 - En2]"
23,< 1,"Cn1nc2ccc(OCc3ccccn3)cc2c1C(=O)NC1(CO)CCNC1=O (single isomer, unassigned) [Cpd 253 - En1]"
24,1 to 20,"Cn1nc2ccc(OCc3ccccn3)cc2c1C(=O)NC1(CO)CCNC1=O (single isomer, unassigned) [Cpd 253 - En2]"

row,IC50 [µM],Compound
1,1 to 20,"Cn1nc2ccc(OCc3ccccn3)cc2c1C(=O)NC(CO)C(F)(F)F (single isomer, unassigned) [Cpd 254 - En1]"
2,> 20,"Cn1nc2ccc(OCc3ccccn3)cc2c1C(=O)NC(CO)C(F)(F)F (single isomer, unassigned) [Cpd 254 - En2]"
3,1 to 20,"Cn1nc2ccc(OCc3ccccn3)cc2c1C(=O)NC(C)(CO)CC(F)(F)F (single isomer, unassigned) [Cpd 255 - En1, 2-methyl-5-[(pyridin-2-yl)methoxy]-N-(4,4,4-trifluoro-1-hydroxy-2-methylbutan-2-yl)-2H-indazole-3-carboxamide]"
4,1 to 20,"Cn1nc2ccc(OCc3ccccn3)cc2c1C(=O)NC(C)(CO)CC(F)(F)F (single isomer, unassigned) [Cpd 255 - En2, 2-methyl-5-[(pyridin-2-yl)methoxy]-N-(4,4,4-trifluoro-1-hydroxy-2-methylbutan-2-yl)-2H-indazole-3-carboxamide]"
5,1 to 20,"COCC(C)(CO)NC(=O)c1c2cc(OCc3ccccn3)ccc2nn1C (single isomer, unassigned) [Cpd 258 - En1]"
6,1 to 20,"COCC(C)(CO)NC(=O)c1c2cc(OCc3ccccn3)ccc2nn1C (single isomer, unassigned) [Cpd 258 - En2]"
7,1 to 20,"Cc1ncsc1COc1ccc2nn(C)c(C(=O)NC3(CO)CCOCC3)c2c1 [Cpd 001, N-[4-(hydroxymethyl)oxan-4-yl]-2-methyl-5-[(4-methyl-1,3-thiazol-5-yl)methoxy]-2H-indazole-3-carboxamide]"
8,1 to 20,"Cn1nc2ccc(OCc3ccccc3)cc2c1C(=O)NC1(CO)CC1 [Cpd 004, 5-(benzyloxy)-N-[1-(hydroxymethyl)cyclopropyl]-2-methyl-2H-indazole-3-carboxamide]"
9,1 to 20,"Cc1ncsc1COc1ccc2nn(C)c(C(=O)NC(C)(C)CO)c2c1 [Cpd 005, N-(1-hydroxy-2-methylpropan-2-yl)-2-methyl-5-[(4-methyl-1,3-thiazol-5-yl)methoxy]-2H-indazole-3-carboxamide]"
10,> 20,"Cn1ccc(NC(=O)c2c3cc(OCc4ccnn4C)ccc3nn2C)n1 [Cpd 006, 2-methyl-N-(1-methyl-1H-pyrazol-3-yl)-5-[(1-methyl-1H-pyrazol-5-yl)methoxy]-2H-indazole-3-carboxamide]"
11,< 1,"Cn1nc2ccc(OCc3cccnc3C(F)(F)F)cc2c1C(=O)NC1CCNC1=O (centres unmarked) [Cpd 007, 2-methyl-N-(2-oxopyrrolidin-3-yl)-5-{[2-(trifluoromethyl)pyridin-3-yl]methoxy}-2H-indazole-3-carboxamide]"
12,1 to 20,"Cn1nc2ccc(OCc3ccccc3)cc2c1C(=O)NC1CCNC1=O (centres unmarked) [Cpd 008, 5-(benzyloxy)-2-methyl-N-(2-oxopyrrolidin-3-yl)-2H-indazole-3-carboxamide]"
13,1 to 20,"Cn1nccc1COc1ccc2nn(C)c(C(=O)NC(C)(CO)CO)c2c1 [Cpd 009, N-(1,3-dihydroxy-2-methylpropan-2-yl)-2-methyl-5-[(1-methyl-1H-pyrazol-5-yl)methoxy]-2H-indazole-3-carboxamide]"
14,1 to 20,"Cn1nccc1COc1ccc2nn(C)c(C(=O)NCC(C)(C)CO)c2c1 [Cpd 012, N-(3-hydroxy-2,2-dimethylpropyl)-2-methyl-5-[(1-methyl-1H-pyrazol-5-yl)methoxy]-2H-indazole-3-carboxamide]"
15,1 to 20,"Cn1ccc(NC(=O)c2c3cc(OCc4cccnc4C(F)(F)F)ccc3nn2C)n1 [Cpd 013, 2-methyl-N-(1-methyl-1H-pyrazol-3-yl)-5-{[2-(trifluoromethyl)pyridin-3-yl]methoxy}-2H-indazole-3-carboxamide]"
16,1 to 20,"Cn1ccc(NC(=O)c2c3cc(OCc4ccccc4)ccc3nn2C)n1 [Cpd 014, 5-(benzyloxy)-2-methyl-N-(1-methyl-1H-pyrazol-3-yl)-2H-indazole-3-carboxamide]"
17,1 to 20,"Cn1nccc1COc1ccc2nn(C)c(C(=O)NC(C)(C)CO)c2c1 [Cpd 015, N-(1-hydroxy-2-methylpropan-2-yl)-2-methyl-5-[(1-methyl-1H-pyrazol-5-yl)methoxy]-2H-indazole-3-carboxamide]"
18,< 1,"Cn1nc2ccc(OCc3cccnc3C(F)(F)F)cc2c1C(=O)NC(C)(CO)CO [Cpd 016, N-(1,3-dihydroxy-2-methylpropan-2-yl)-2-methyl-5-{[2-(trifluoromethyl)pyridin-3-yl]methoxy}-2H-indazole-3-carboxamide]"
19,1 to 20,"Cn1nc2ccc(OCc3ccccc3)cc2c1C(=O)NC(C)(CO)CO [Cpd 017, 5-(benzyloxy)-N-(1,3-dihydroxy-2-methylpropan-2-yl)-2-methyl-2H-indazole-3-carboxamide]"
20,1 to 20,"Cc1ncsc1COc1ccc2nn(C)c(C(=O)Nc3ccn(C)n3)c2c1 [Cpd 018, 2-methyl-5-[(4-methyl-1,3-thiazol-5-yl)methoxy]-N-(1-methyl-1H-pyrazol-3-yl)-2H-indazole-3-carboxamide]"
21,> 20,"Cn1nc2ccc(OCc3cccnc3C(F)(F)F)cc2c1C(=O)NCC(C)(C)CO [Cpd 019, N-(3-hydroxy-2,2-dimethylpropyl)-2-methyl-5-{[2-(trifluoromethyl)pyridin-3-yl]methoxy}-2H-indazole-3-carboxamide]"
22,1 to 20,"Cn1nc2ccc(OCc3ccccc3)cc2c1C(=O)NCC(C)(C)CO [Cpd 020, 5-(benzyloxy)-N-(3-hydroxy-2,2-dimethylpropyl)-2-methyl-2H-indazole-3-carboxamide]"
23,< 1,"Cc1ncsc1COc1ccc2nn(C)c(C(=O)NC(C)(CO)CO)c2c1 [Cpd 021, N-(1,3-dihydroxy-2-methylpropan-2-yl)-2-methyl-5-[(4-methyl-1,3-thiazol-5-yl)methoxy]-2H-indazole-3-carboxamide]"
